Patent publication US20070128217A1 (priority 2003, published 2007)

Legend:
[1] = test system: antibodies in sera from SARS patients (sera 1a, 1b, 2, 6, 37, 62, London, SARS-yellow, SARS-green); format: binding, human; set-up: Binding of serum 6 to linear peptides of protein X1 of SARS-CoV Urbani / Binding of serum 37 to linear peptides of protein X1 of SARS-CoV Urbani / Binding of serum 6 to looped/cyclic peptide (PEPSCAN-ELISA) / Binding of serum 37 to looped/cyclic peptide (PEPSCAN-ELISA) / Binding of serum 37 to looped/cyclic peptides of protein X1 of SARS-CoV Urbani / Binding of serum 6 to linear peptides of protein X2 / Binding of serum 37 to linear peptides of protein X2 / Binding of serum 37 to looped/cyclic peptides of protein X2 of SARS-CoV Urbani / Binding of serum 6 to linear peptides of protein M of SARS-CoV Urbani / Binding of serum 37 to linear peptides of protein M of SARS-CoV Urbani / Binding of serum 6 to looped/cyclic peptides of protein M of SARS-CoV Urbani / Binding of serum 37 to looped/cyclic peptides of protein M of SARS-CoV Urbani / Binding of serum 6 to linear peptides of protein X3 of SARS-CoV Urbani / Binding of serum 37 to linear peptides of protein X3 of SARS-CoV Urbani / Binding of serum 37 to looped/cyclic peptides of protein X3 of SARS-CoV Urbani / Binding of serum 6 to linear peptides of protein X4 of SARS-CoV Urbani / Binding of serum 37 to linear peptides of protein X4 of SARS-CoV Urbani / Binding of serum 37 to looped/cyclic peptides of protein X4 of SARS-CoV Urbani / Binding of serum 6 to linear peptides of protein X5 of SARS-CoV Urbani / Binding of serum 37 to linear peptides of protein X5 of SARS-CoV Urbani / Binding of serum 37 to looped/cyclic peptides of protein X5 of SARS-CoV Urbani / Binding of serum 6 to linear peptides of protein N of SARS-CoV Urbani / Binding of serum 37 to linear peptides of protein N of SARS-CoV Urbani / Binding of serum 6 to linear peptide (PEPSCAN-ELISA) / Binding of serum 1a to looped/cyclic peptides of protein N of SARS-CoV Urbani / Binding of serum 1b to looped/cyclic peptides of protein N of SARS-CoV Urbani / Binding of serum 2 to looped/cyclic peptides of protein N of SARS-CoV Urbani / Binding of serum 6 to looped/cyclic peptides of protein N of SARS-CoV Urbani / Binding of serum 37 to looped/cyclic peptides of protein N of SARS-CoV Urbani / Binding of serum 62 to looped/cyclic peptides of protein N of SARS-CoV Urbani / Binding of serum London to looped/cyclic peptides of protein N of SARS-CoV Urbani / Binding of serum SARS-green to looped/cyclic peptides of protein N of SARS-CoV Urbani: unit not given here
[2] = test system: control sera (pooled serum of ten healthy LUMC hospital workers; commercial negative donor pooled serum from the Dutch bloodbank); format: binding, human; set-up: Binding of Control serum LUMC to linear peptides / Binding of Control serum Blood-bank to linear peptides / Binding of Control serum LUMC to looped peptides / Binding of Control Serum Blood-Bank to Looped peptides / Binding of Control serum LUMC to linear peptides of the protein M of SARS-CoV Urbani / Binding of Control serum Blood-bank to linear peptides of the protein M of SARS-CoV Urbani / Binding of Control serum LUMC to looped peptides of the protein M of SARS-CoV Urbani / Binding of Control Serum Blood-Bank to Looped peptides of the protein M of SARS-CoV Urbani: unit not given here
[3] = test system: rabbit serum obtained by immunizing a rabbit with the SARS-CoV strain Frankfurt 1; format: binding; set-up: Binding of a rabbit serum to linear peptides / Binding of a rabbit serum to looped peptides / Rabbit serum linear peptides / Rabbit serum looped peptides / Binding of a rabbit serum to linear peptides of protein N of SARS-CoV Urbani (Rabbit serum linear peptides) / Binding of a rabbit serum to looped/cyclic peptides of protein N of SARS-CoV Urbani (Rabbit serum looped peptides): unit not given here
[4] = test system: recombinant human anti-SARS-CoV antibody 03-018; format: binding; set-up: Binding of antibody 03-018 to linear peptides of the N protein of SARS-CoV Urbani / Binding of antibody 03-018 to looped/cyclic peptides of the N protein of SARS-CoV Urbani: unit not given here

For LPAADMDDFSRQLQN, the “Binding of serum 1a to linear peptides of protein N of SARS-CoV Urbani” value [1] was 0.2, the “Binding of serum 1a to looped/cyclic peptides of protein N of SARS-CoV Urbani” value [1] was 0.3 and the “Binding of serum 1b to linear peptides of protein N of SARS-CoV Urbani” value [1] was 0.2. For the same sequence, the “Binding of serum 1b to looped/cyclic peptides of protein N of SARS-CoV Urbani” value [1] was 0.2, the “Binding of serum 2 to linear peptides of protein N of SARS-CoV Urbani” value [1] was 0.4 and the “Binding of serum 2 to looped/cyclic peptides of protein N of SARS-CoV Urbani” value [1] was 0.5. The “Binding of serum 6 to linear peptides of protein N of SARS-CoV Urbani” value [1] was 0.3, the “Binding of serum 6 to looped/cyclic peptides of protein N of SARS-CoV Urbani” value [1] was 0.4 and the “Binding of serum 37 to linear peptides of protein N of SARS-CoV Urbani” value [1] was 0.7. The “Binding of serum 37 to looped/cyclic peptides of protein N of SARS-CoV Urbani” value [1] was 0.6, the “Binding of serum 62 to linear peptides of protein N of SARS-CoV Urbani” value [1] was 0.6 and the “Binding of serum 62 to looped/cyclic peptides of protein N of SARS-CoV Urbani” value [1] was 0.4. For the same sequence, the “Binding of serum London to linear peptides of protein N of SARS-CoV Urbani” value [1] was 0.5, the “Binding of serum London to looped/cyclic peptides of protein N of SARS-CoV Urbani” value [1] was 0.3 and the “Binding of serum SARS-green to linear peptides of protein N of SARS-CoV Urbani” value [1] was 0.2. The “Binding of serum SARS-green to looped/cyclic peptides of protein N of SARS-CoV Urbani” value [1] was 0.5, the “Binding of serum SARS-yellow to linear peptides of protein N of SARS-CoV Urbani” value [1] was 0.6 and the “Binding of serum SARS-yellow to looped/cyclic peptides of protein N of SARS-CoV Urbani” value [1] was 0.6. The “Control Serum Blood-Bank Looped peptides” value [2] was 0.4, the “Control serum Blood-bank linear peptides” value [2] was 0.7 and the “Control serum LUMC linear peptides” value [2] was 0.7. The “Control serum LUMC looped peptides” value [2] was 0.4, the “Binding of a rabbit serum to linear peptides of protein N of SARS-CoV Urbani (Rabbit serum linear peptides)” value (“Binding … (Rabbit serum linear peptides)” below) [3] was 0.2 and the “Binding of a rabbit serum to looped/cyclic peptides of protein N of SARS-CoV Urbani (Rabbit serum looped peptides)” value [3] was 0.2. For the same sequence, the “Binding of antibody 03-018 to linear peptides of the N protein of SARS-CoV Urbani” value [4] was 0.1 and the “Binding of antibody 03-018 to looped/cyclic peptides of the N protein of SARS-CoV Urbani” value [4] was 0.2.
For LPKGFYAEGSRGGSQ, the “Binding of serum 1a to linear peptide (PEPSCAN-ELISA)” value [1] was 0.2, the “Binding of serum 1a to looped/cyclic peptides of protein N of SARS-CoV Urbani” value [1] was 0.3 and the “Binding of serum 1b to linear peptide (PEPSCAN-ELISA)” value [1] was 0.1. For the same sequence, the “Binding of serum 1b to looped/cyclic peptides of protein N of SARS-CoV Urbani” value [1] was 0.2, the “Binding of serum 2 to linear peptide (PEPSCAN-ELISA)” value [1] was 0.2 and the “Binding of serum 2 to looped/cyclic peptides of protein N of SARS-CoV Urbani” value [1] was 0.3. For the same sequence, the “Binding of serum 6 to linear peptide (PEPSCAN-ELISA)” value [1] was 0.1, the “Binding of serum 6 to looped/cyclic peptides of protein N of SARS-CoV Urbani” value [1] was 0.2 and the “Binding of serum 37 to linear peptide (PEPSCAN-ELISA)” value [1] was 0.6. The “Binding of serum 37 to looped/cyclic peptides of protein N of SARS-CoV Urbani” value [1] was 0.5, the “Binding of serum 62 to linear peptide (PEPSCAN-ELISA)” value [1] was 0.6 and the “Binding of serum 62 to looped/cyclic peptides of protein N of SARS-CoV Urbani” value [1] was 0.4. The “Binding of serum London to linear peptide (PEPSCAN-ELISA)” value [1] was 0.4, the “Binding of serum London to looped/cyclic peptides of protein N of SARS-CoV Urbani” value [1] was 0.4 and the “Binding of serum SARS-green to linear peptide (PEPSCAN-ELISA)” value [1] was 0.2. For the same sequence, the “Binding of serum SARS-green to looped/cyclic peptides of protein N of SARS-CoV Urbani” value [1] was 0.3, the “Binding of serum SARS-yellow to linear peptide (PEPSCAN-ELISA)” value [1] was 0.5 and the “Binding of serum SARS-yellow to looped/cyclic peptides of protein N of SARS-CoV Urbani” value [1] was 0.2. The “Binding of Control Serum Blood-Bank to Looped peptides” value [2] was 0.6, the “Binding of Control serum Blood-bank to linear peptides” value [2] was 0.6 and the “Binding of Control serum LUMC to linear peptides” value [2] was 0.6. The “Binding of Control serum LUMC to looped peptides” value [2] was 0.5, the “Binding … (Rabbit serum linear peptides)” value [3] was 0.1 and the “Binding of a rabbit serum to looped/cyclic peptides of protein N of SARS-CoV Urbani (Rabbit serum looped peptides)” value [3] was 0.1. The “Binding of antibody 03-018 to linear peptides of the N protein of SARS-CoV Urbani” value [4] was 0.1 and the “Binding of antibody 03-018 to looped/cyclic peptides of the N protein of SARS-CoV Urbani” value [4] was 0.2.
In the case of LPNNTASWFTALTQH, the “Binding of serum 1a to linear peptides of protein N of SARS-CoV Urbani” value [1] is reported as 0.2, the “Binding of serum 1a to looped/cyclic peptides of protein N of SARS-CoV Urbani” value [1] is reported as 0.4 and the “Binding of serum 1b to linear peptides of protein N of SARS-CoV Urbani” value [1] is reported as 0.1. For the same sequence, the “Binding of serum 1b to looped/cyclic peptides of protein N of SARS-CoV Urbani” value [1] was 0.3, the “Binding of serum 2 to linear peptides of protein N of SARS-CoV Urbani” value [1] was 0.2 and the “Binding of serum 2 to looped/cyclic peptides of protein N of SARS-CoV Urbani” value [1] was 0.4. For the same sequence, the “Binding of serum 6 to linear peptides of protein N of SARS-CoV Urbani” value [1] was 0.1, the “Binding of serum 6 to looped/cyclic peptides of protein N of SARS-CoV Urbani” value [1] was 0.3 and the “Binding of serum 37 to linear peptides of protein N of SARS-CoV Urbani” value [1] was 0.7. The “Binding of serum 37 to looped/cyclic peptides of protein N of SARS-CoV Urbani” value [1] was 0.8, the “Binding of serum 62 to linear peptides of protein N of SARS-CoV Urbani” value [1] was 0.7 and the “Binding of serum 62 to looped/cyclic peptides of protein N of SARS-CoV Urbani” value [1] was 0.7. For the same sequence, the “Binding of serum London to linear peptides of protein N of SARS-CoV Urbani” value [1] was 0.4, the “Binding of serum London to looped/cyclic peptides of protein N of SARS-CoV Urbani” value [1] was 0.3 and the “Binding of serum SARS-green to linear peptides of protein N of SARS-CoV Urbani” value [1] was 0.3. For the same sequence, the “Binding of serum SARS-green to looped/cyclic peptides of protein N of SARS-CoV Urbani” value [1] was 0.7, the “Binding of serum SARS-yellow to linear peptides of protein N of SARS-CoV Urbani” value [1] was 0.5 and the “Binding of serum SARS-yellow to looped/cyclic peptides of protein N of SARS-CoV Urbani” value [1] was 0.7. The “Binding of Control Serum Blood-Bank to Looped peptides” value [2] was 0.8, the “Binding of Control serum Blood-bank to linear peptides” value [2] was 0.7 and the “Binding of Control serum LUMC to linear peptides” value [2] was 0.7. The “Binding of Control serum LUMC to looped peptides” value [2] was 0.7, the “Binding … (Rabbit serum linear peptides)” value [3] was 0.1 and the “Binding of a rabbit serum to looped/cyclic peptides of protein N of SARS-CoV Urbani (Rabbit serum looped peptides)” value [3] was 0.6. For the same sequence, the “Binding of antibody 03-018 to linear peptides of the N protein of SARS-CoV Urbani” value [4] was 0.1 and the “Binding of antibody 03-018 to looped/cyclic peptides of the N protein of SARS-CoV Urbani” value [4] was 0.3.
